In data set [1] the test system is interferon γ (IFN-γ) production. As to the kind of experiment: Cytokine production inhibitory effect: IFN-γ production by murine spleen cells treated with anti-mouse CD3 antibody and IL-2 (ELISA). Format: cell-based, Balb/c mice. The note with it: test compound 100 ppm, anti-CD3 antibody + IL-2, 40 to 48 hours, read-out: IFN-γ production inhibitory ratio (%). On the procedure:
(§1) Murine spleen cells were treated with anti-mouse CD3 antibody and IL-2 to induce cytokine production. The test compounds were added to the cytokine production system to evaluate their inhibitory effect. Namely, anti-mouse CD3 antibody adjusted to from 10 to 20 μg/ml with borate buffered physiological saline (pH 8.5) was pipetted into a 96-well cell culture plate in an amount of 50 μl/well and left to stand at 4° C. for 18 hours. The unreacted solution was removed, washing with Hank's buffer solution was carried out once, and IL-2 adjusted to 10 ng/ml with a RPMI liquid containing 10% fetal bovine serum (FCS) was pipetted in an amount of 50 μl/well. For the negative control group, a solution alone without anti-CD3 antibody nor IL-2 was applied. Then, the diluted solution of each of the test compounds (concentration: 100 ppm unless otherwise specified) was pipetted in an amount of 50 μl/well, and a cell suspension of 1×10^7 cells/ml, prepared from spleen of Balb/c mice (female, 7 to 10 week old) was pipetted thereinto in an amount of 100 μl/well. After cultivation in an incubator (37° C., 5% carbon dioxide gas) for from 40 to 48 hours, the culture supernatant was recovered to measure the cytokine production amount by ELISA method.
(§2) With respect to interleukin 5 (IL-5) as a typical Th2 type cytokine and interferon γ (IFN-γ) as a typical Th1 type cytokine, measurements were carried out by the following methods, respectively. Namely, quantitative determination of IL-5 was carried out by the following ELISA method. First, rat anti-mouse IL-5 antibody (Endogen Code No. MM-550C) as a primary antibody was diluted with carbonate buffer solution (pH 9.5) to 1 μg/ml, and spread in a 96 well plate (IWAKI, Code No. 3860-096) in an amount of 50 μl/well for coating at 4° C. overnight (16 to 24 hours). Then, the plate was subjected to blocking at 37° C. for 2 hours by phosphate buffered physiological saline containing 10% FCS (pH 7.2) (blocking buffer solution) (250 μl/well). The plate was washed with PBS (washing buffer) containing 0.05% Tween 20 (Nacalai Tesque, Code No. 281-51) four times, and a diluted liquid of the culture supernatant was spread in an amount of 50 μl/well, followed by incubation at room temperature for 1 hour. For preparation of a standard line, recombinant mouse IL-5 (R&D systems, Code No. 405-ML) was employed. The plate was washed with a washing buffer four times, and biotin-labeled rat anti-mouse IL-5 antibody (Pharmingen, Code No. 18062D) as a secondary antibody diluted to 0.5 μg/ml with a blocking buffer containing 0.05% Tween 20 was added thereto (50 μl/well), followed by incubation at room temperature for 1 hour. The plate was washed with a washing buffer four times, strept avidin-labeled peroxidase (ProZyme, Code No. CJ30H001) diluted 800 times with a blocking buffer containing 0.05% Tween 20 was added thereto (50 μl/well), followed by reaction at room temperature for 15 minutes. The plate was washed with a washing buffer four times, and a […] substrate solution (SIGMA, Code No. T-8665) was added thereto in an amount of 100 μl/well for color developing for from 10 to 20 minutes. A 1M sulfuric acid solution was added thereto in an amount of 100 μl/well to terminate the reaction, and absorption (wavelength 450 nm) was measured by means of micro plate reader (SPECTRA max, Wako Pure Chemicals Industries, Ltd.). Quantitative determination of IFN-γ was carried out in the same manner as the measurement of IL-5, employing rat anti-mouse IFN-γ antibody (Pharmingen, Code No. 18181D) and biotin labeled rat anti-mouse IFN-γ antibody (Pharmingen, Code NO. 18112D), as a primary antibody and a secondary antibody, respectively. For preparation of a standard line, recombinant mouse IFN-γ (GENZYME, Code No. 3485) was employed. The experiment was carried out in duplicate, and the average of the cytokine production amount was obtained. […]
For orientation: In an ELISA, binding on a coated surface is turned into a signal by an enzyme label.

The subject of data set [2] is interleukin 5 (IL-5) production. As to the kind of experiment: Cytokine production inhibitory effect: IL-5 production by murine spleen cells treated with anti-mouse CD3 antibody and IL-2 (ELISA). It counts as cell-based, Balb/c mice. The note with it: test compound 100 ppm, anti-CD3 antibody + IL-2, 40 to 48 hours, read-out: IL-5 production inhibitory ratio (%). The protocol: as §1, §2

Usually melting point stands for the temperature of the solid-liquid transition.

Consider `COC(=O)c1cc(C(=O)Nc2ccc(C34CC5CC(CC(C5)C3)C4)cc2C)cc([N+](=O)[O-])c1` [compound 47], for which the melting point was found to be 178 °C. In data set [1], the inhibition at 100 ppm worked out at 95%. Besides, the inhibition at 100 ppm in data set [2] turned out to be 89%.
The corresponding values for `O=[N+]([O-])c1ccc(Cl)c(S(=O)(=O)Nc2ccc(Oc3ccccc3)cc2)c1` [compound 49] are 148 °C, 100% and 100%.
In the same order, the values of `Cc1cc(C23CC4CC(CC(C4)C2)C3)ccc1NC(=O)c1cccc(C#N)c1` [compound 50] are 83 °C, 98% and 95%.
In turn, `O=C(c1ccccc1)c1ccc(NC(=O)c2cc([N+](=O)[O-])ccc2Cl)cc1` [compound 51] had a melting point of 226 °C. The inhibition at 100 ppm in data set [1] came out at 100%. For the same compound, in data set [2], the inhibition at 100 ppm was found to be 99%.
As to `COc1ccc([N+](=O)[O-])c(OC)c1C(=O)Nc1ccc(C23CC4CC(CC(C4)C2)C3)cc1C` [compound 52], the melting point turned out to be 115 °C. Further, the inhibition at 100 ppm in data set [1] amounted to 96%. Moreover, the inhibition at 100 ppm in data set [2] worked out at 75%.
`Cc1cc(C23CC4CC(CC(C4)C2)C3)ccc1NC(=O)c1c(Cl)ccc([N+](=O)[O-])c1Cl` [compound 53] gave a melting point of 224 °C. The inhibition at 100 ppm in data set [1] was found to be 93%. Also, the inhibition at 100 ppm in data set [2] stood at 94%.
Compound `Cc1cc(C23CC4CC(CC(C4)C2)C3)ccc1NC(=O)c1ccc([N+](=O)[O-])cc1Cl` [compound 55] showed a melting point of 200 °C. The inhibition at 100 ppm in data set [1] is 100%. Also, the inhibition at 100 ppm in data set [2] came out at 96%.
Turning to `Cc1cc(C23CC4CC(CC(C4)C2)C3)ccc1NC(=O)c1cc([N+](=O)[O-])ccc1O` [compound 56], the melting point amounted to 131 °C. Also, the inhibition at 100 ppm in data set [1] was found to be 100%. In addition, the inhibition at 100 ppm in data set [2] worked out at 100%.
`Cc1cc(C23CC4CC(CC(C4)C2)C3)ccc1NC(=O)c1cc(Cl)ccc1[N+](=O)[O-]` [compound 57] came in with a melting point of 233 °C. In addition, the inhibition at 100 ppm in data set [1] is 98%. The inhibition at 100 ppm in data set [2] is 90%.
Turning to `Cc1cc(C23CC4CC(CC(C4)C2)C3)ccc1NC(=O)c1cccc(Cl)c1[N+](=O)[O-]` [compound 58], the melting point stood at 256 °C. Moreover, in data set [1], the inhibition at 100 ppm was 96%. In data set [2], the inhibition at 100 ppm stood at 97%.
The corresponding values for `O=C(Nc1ccc(Sc2ncc(C(F)(F)F)cc2Cl)cc1)c1cc([N+](=O)[O-])ccc1Cl` [compound 59] are 174 °C, 100% and 100%.
The corresponding values for `Cc1cc(C23CC4CC(CC(C4)C2)C3)ccc1NC(=O)c1cccc([N+](=O)[O-])c1Cl` [compound 60] are 222 °C, 93% and 96%.
In turn, `Cc1cc(C23CC4CC(CC(C4)C2)C3)ccc1NC(=O)c1ccccc1` [compound 61] registered a melting point of 198 °C. In data set [1], the inhibition at 100 ppm amounted to 89%. The inhibition at 100 ppm in data set [2] is 79%.
Consider `Cc1cc(C23CC4CC(CC(C4)C2)C3)ccc1NC(=O)c1ccc(Cl)c([N+](=O)[O-])c1` [compound 62], for which the melting point came to 111 °C. Also, the inhibition at 100 ppm in data set [1] came to 100%. Also, the inhibition at 100 ppm in data set [2] was found to be 100%.
Turning to `O=C(Nc1ccc(Oc2ccccn2)cc1)c1cc([N+](=O)[O-])ccc1Cl` [compound 63], the melting point was found to be 198 °C. Further, in data set [1], the inhibition at 100 ppm was 100%. Besides, the inhibition at 100 ppm in data set [2] came to 100%.
Take `O=C(Nc1ccc(Oc2ncc(C(F)(F)F)cc2Cl)cc1)c1cc([N+](=O)[O-])ccc1Cl` [compound 64]: the melting point is 203 °C. For the same compound, the inhibition at 100 ppm in data set [1] worked out at 99%. Moreover, the inhibition at 100 ppm in data set [2] turned out to be 98%.
In the same order, the values of `O=C(Nc1ccc(N2CCOCC2)cc1)c1cc([N+](=O)[O-])ccc1Cl` [compound 66] are 195 °C, 91% and 95%.
In turn, `O=C(Nc1ccc(/N=N/c2ccccc2)cc1)c1cc([N+](=O)[O-])ccc1Cl` [compound 67] returned a melting point of 187 °C. Also, the inhibition at 100 ppm in data set [1] came to 100%. In addition, in data set [2], the inhibition at 100 ppm turned out to be 99%.
In the same order, the values of `CSc1ccc(Cl)c(C(=O)Nc2ccc(C34CC5CC(CC(C5)C3)C4)cc2C)c1` [compound 68] are 65 °C, 99% and 92%.
The corresponding values for `O=C(Nc1ccc(Sc2ccccc2)cc1)c1cc([N+](=O)[O-])ccc1Cl` [compound 69] are 180 to 183 °C, 100% and 100%.
The corresponding values for `Cc1cc(C23CC4CC(CC(C4)C2)C3)ccc1NC(=O)c1cc(C(F)(F)F)ccc1Cl` [compound 70] are 69 °C, 99% and 98%.
Consider `Cc1ccc(NC(=O)c2ccc([N+](=O)[O-])cc2Cl)c(C)c1` [compound 73], for which the melting point lay within 181 to 183 °C. Besides, the inhibition at 100 ppm in data set [1] came to 28%. For the same compound, the inhibition at 100 ppm in data set [2] came out at 64%.
The corresponding values for `Cc1cc(C23CC4CC(CC(C4)C2)C3)ccc1NC(=O)c1ccc([N+](=O)[O-])cc1` [compound 74] are 289 to 290 °C, 10% and 43%.
The compound `Cc1cc(C23CC4CC(CC(C4)C2)C3)ccc1NC(=O)c1cc(S(C)(=O)=O)ccc1Cl` [compound 75] came in with a melting point of 96 to 100 °C. In addition, the inhibition at 100 ppm in data set [1] is 100%. Besides, the inhibition at 100 ppm in data set [2] was found to be 100%.
For the compound `Cc1cc(C23CC4CC(CC(C4)C2)C3)ccc1NC(=O)c1cc(C#N)ccc1Cl` [compound 76], the melting point is 184 to 187 °C. Also, in data set [1], the inhibition at 100 ppm was found to be 96%. Further, in data set [2], the inhibition at 100 ppm was 96%.
For `O=C(Nc1ccc(OCc2ccccc2)cc1)c1cc([N+](=O)[O-])ccc1Cl` [compound 77], the melting point was in the range of 176 to 178 °C. Moreover, the inhibition at 100 ppm in data set [1] turned out to be 50%. The inhibition at 100 ppm in data set [2] was 74%.
In the same order, the values of `O=C(Nc1ccc(SCc2ccccc2)cc1)c1cc([N+](=O)[O-])ccc1Cl` [compound 78] are 156 to 157 °C, 91% and 78%.
`O=C(Nc1ccc(CSc2ccccc2)cc1)c1cc([N+](=O)[O-])ccc1Cl` [compound 79]: the melting point was 176 to 180 °C. Besides, in data set [1], the inhibition at 100 ppm was determined as 90%. Besides, in data set [2], the inhibition at 100 ppm was 62%.
The compound `O=[N+]([O-])c1ccc(Cl)c(S(=O)(=O)Nc2ccc(Oc3ncc(C(F)(F)F)cc3Cl)cc2)c1` [compound 80] had a melting point of 171 °C. The inhibition at 100 ppm in data set [1] was found to be 100%. In addition, the inhibition at 100 ppm in data set [2] stood at 100%.
`O=C(Nc1ccc(CSc2ncc(C(F)(F)F)cc2Cl)cc1)c1cc([N+](=O)[O-])ccc1Cl` [compound 82] registered a melting point of 207 to 208 °C. In addition, in data set [1], the inhibition at 100 ppm was 99%. In data set [2], the inhibition at 100 ppm was 90%.

The values are drawn from patent US7132546B2, “Aniline derivatives or salts thereof and cytokine production inhibitors containing the same” (Ishihara Sangyo Kaisha, Ltd., priority 2000, dated 2006).
